Measured values published in publication PMC5439949, “Structural features of PhoX, one of the phosphate-binding proteins from Pho regulon of Xanthomonas citri” (PLoS ONE, 2017).

How the values were obtained:
PhoX = PhoX (Xanthomonas citri, UniProt A0AAI8ERC0); assay: thermal unfolding by CD at […] nm; format: binding; conditions: Tm without to with 30 μM NaH2PO4; 2 μM protein, 10 mM Tris-HCl pH 8.0, 20-95 °C
PstS = PstS (Xanthomonas citri, UniProt A0AAI8ESD8); assay: thermal unfolding by CD at […] nm; format: binding; conditions: Tm without to with 30 μM NaH2PO4; 2 μM protein, 10 mM Tris-HCl pH 8.0, 20-95 °C
PstS, sequence (A0AAI8ESD8 entry or part of it): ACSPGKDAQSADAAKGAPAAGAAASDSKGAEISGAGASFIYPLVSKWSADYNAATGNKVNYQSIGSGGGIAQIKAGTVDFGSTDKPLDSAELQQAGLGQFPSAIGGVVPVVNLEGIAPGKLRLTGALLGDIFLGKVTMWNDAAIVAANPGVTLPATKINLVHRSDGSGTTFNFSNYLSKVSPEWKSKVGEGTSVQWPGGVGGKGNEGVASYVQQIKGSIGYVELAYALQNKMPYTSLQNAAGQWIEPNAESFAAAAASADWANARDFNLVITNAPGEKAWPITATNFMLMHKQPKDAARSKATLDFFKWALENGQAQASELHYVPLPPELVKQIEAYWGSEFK

PhoX, sequence (A0AAI8ERC0 entry or part of it): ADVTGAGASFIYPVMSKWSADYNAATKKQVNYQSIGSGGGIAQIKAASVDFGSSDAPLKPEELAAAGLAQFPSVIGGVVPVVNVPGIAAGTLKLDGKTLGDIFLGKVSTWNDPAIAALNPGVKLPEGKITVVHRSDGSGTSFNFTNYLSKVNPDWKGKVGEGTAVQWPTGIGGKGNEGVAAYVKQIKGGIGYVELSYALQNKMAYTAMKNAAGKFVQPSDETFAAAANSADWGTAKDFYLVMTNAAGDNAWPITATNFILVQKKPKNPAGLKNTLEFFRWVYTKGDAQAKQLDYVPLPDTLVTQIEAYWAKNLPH

Question: Which Tm (PhoX) does the source give for `O=P(O)(O)O` [phosphate] here?
Answer: 64 to 77 °C

Question: What about the Tm (PstS) of the same compound?
Answer: 71 to 78 °C
